Data taken from publication doi:10.1101/2024.08.19.608619, “Discovery of potent SARS-CoV-2 nsp3 macrodomain inhibitors uncovers lack of translation to cellular antiviral response” (bioRxiv, 2024).
Where “and” joins values, the source holds several entries; their conditions need not be identical. Equal values may be shown once. Read-outs that look alike come from different tables or passages of the source.

Experiments:
[1] = tested on: NMDA; assay: In vitro CEREP profiling, NMDA (antagonist radioligand); format: binding
Description: (§1) Supplement media-1.zip/Safety_Panel_Profile.csv, table | column: perc_inhibition

[2] = target: T1, alpha1A (h) (Homo sapiens, UniProt P35348); assay: In vitro CEREP profiling, alpha1A (h) (antagonist radioligand); format: binding; details: test compound 10 uM
T1 construct: purchased Eurofins Cerep (SafetyScreen44), recognised from the panel format
T1 sequence (P35348 1-466): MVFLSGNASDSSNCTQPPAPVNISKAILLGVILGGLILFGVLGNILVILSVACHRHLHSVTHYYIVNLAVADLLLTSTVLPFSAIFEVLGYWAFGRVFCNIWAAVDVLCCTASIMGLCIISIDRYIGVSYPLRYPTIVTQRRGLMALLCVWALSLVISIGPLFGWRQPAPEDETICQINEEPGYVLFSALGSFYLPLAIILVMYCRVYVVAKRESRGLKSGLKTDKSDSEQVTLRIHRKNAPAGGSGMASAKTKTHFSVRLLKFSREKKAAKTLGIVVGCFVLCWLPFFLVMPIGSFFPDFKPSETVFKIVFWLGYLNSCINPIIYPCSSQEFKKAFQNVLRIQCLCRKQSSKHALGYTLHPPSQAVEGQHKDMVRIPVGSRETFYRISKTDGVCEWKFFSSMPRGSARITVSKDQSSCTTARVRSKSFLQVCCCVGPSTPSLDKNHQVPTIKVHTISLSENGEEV
Description: as §1

[3] = target: T2, beta2 (h) (Homo sapiens, UniProt P07550); assay: In vitro CEREP profiling, beta2 (h) (antagonist radioligand); format: binding; details: test compound 10 uM
T2 construct: purchased Eurofins Cerep (SafetyScreen44), recognised from the panel format
Description: as §1

[4] = target: T3, CCK1 (CCKA) (h) (Homo sapiens, UniProt P32238); assay: In vitro CEREP profiling, CCK1 (CCKA) (h) (agonist radioligand); format: binding; details: test compound 10 uM
T3 construct: purchased Eurofins Cerep (SafetyScreen44), recognised from the panel format
T3 sequence (P32238 1-428): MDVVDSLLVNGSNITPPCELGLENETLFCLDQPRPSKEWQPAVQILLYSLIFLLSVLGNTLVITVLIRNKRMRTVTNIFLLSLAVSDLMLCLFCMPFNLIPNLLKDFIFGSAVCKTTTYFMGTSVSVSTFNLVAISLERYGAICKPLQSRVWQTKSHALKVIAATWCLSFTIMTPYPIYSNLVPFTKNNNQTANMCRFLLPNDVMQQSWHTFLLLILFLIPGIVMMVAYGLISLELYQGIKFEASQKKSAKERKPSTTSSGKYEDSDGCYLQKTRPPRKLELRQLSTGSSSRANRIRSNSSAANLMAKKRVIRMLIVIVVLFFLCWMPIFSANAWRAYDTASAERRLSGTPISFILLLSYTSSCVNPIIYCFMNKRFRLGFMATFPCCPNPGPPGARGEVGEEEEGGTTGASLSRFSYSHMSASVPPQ
Description: as §1

[5] = Hepatic microsomal stability, HLM; format: in vitro ADME, human; details: for perc_remaining_no_cofactor: no cofactor
[6] = target: T4, D2S (h) (Homo sapiens, UniProt P14416); assay: In vitro CEREP profiling, D2S (h) (agonist radioligand); format: binding; details: test compound 10 uM
T4 construct: purchased Eurofins Cerep (SafetyScreen44), recognised from the panel format
Description: as §1

[7] = target: T5, N neuronal alpha4beta2 (h) (Homo sapiens, UniProt P17787+P43681); assay: In vitro CEREP profiling, N neuronal alpha4beta2 (h) (agonist radioligand); format: binding; details: test compound concentration 10 uM
T5 construct: purchased Eurofins Cerep (SafetyScreen44), recognised from the panel format
Description: as §1

[8] = In vitro rat hepatocyte stability; format: in vitro ADME
Description: (§2) Supplement media-1.zip/Hepatocyte_Stability.csv, table | column: clint; t_half

[9] = target: T6, dopamine transporter (h) (Homo sapiens, UniProt Q01959); assay: In vitro CEREP profiling, dopamine transporter (h) (antagonist radioligand); format: binding; details: test compound concentration 10 uM
T6 construct: purchased Eurofins Cerep (SafetyScreen44), recognised from the panel format
Description: as §1

[10] = target: T7, H2 (h) (Homo sapiens, UniProt P25021); assay: In vitro CEREP profiling, H2 (h) (antagonist radioligand); format: binding; details: test compound concentration 10 uM
T7 construct: purchased Eurofins Cerep (SafetyScreen44), recognised from the panel format
Description: as §1

[11] = target: T8, beta1 (h) (Homo sapiens, UniProt P08588); assay: In vitro CEREP profiling, beta1 (h) (agonist radioligand); format: binding; details: test compound 10 uM
T8 construct: purchased Eurofins Cerep (SafetyScreen44), recognised from the panel format
Description: as §1

[12] = tested on: AR(h); assay: In vitro CEREP profiling, AR(h) (agonist radioligand); format: binding, human; details: test compound concentration 10 uM
Description: as §1

[13] = In vitro dog hepatocyte stability; format: in vitro ADME
Description: as §2

[14] = target: T9, KOR receptor (Homo sapiens, UniProt P41145); assay: Eurofins CEREP panel, KOR; format: binding
T9 construct: purchased Eurofins Cerep (SafetyScreen44), recognised from the panel format

[15] = target: T10, DRAK1(h) (Homo sapiens, UniProt Q9UEE5); assay: biochemical; design: In vitro kinase panel profiling, per cent remaining kinase activity at 10 uM; details: atp_concentration=10, read-out: % of control remaining
T10 construct: gene STK17A
T10 sequence (Q9UEE5 1-414): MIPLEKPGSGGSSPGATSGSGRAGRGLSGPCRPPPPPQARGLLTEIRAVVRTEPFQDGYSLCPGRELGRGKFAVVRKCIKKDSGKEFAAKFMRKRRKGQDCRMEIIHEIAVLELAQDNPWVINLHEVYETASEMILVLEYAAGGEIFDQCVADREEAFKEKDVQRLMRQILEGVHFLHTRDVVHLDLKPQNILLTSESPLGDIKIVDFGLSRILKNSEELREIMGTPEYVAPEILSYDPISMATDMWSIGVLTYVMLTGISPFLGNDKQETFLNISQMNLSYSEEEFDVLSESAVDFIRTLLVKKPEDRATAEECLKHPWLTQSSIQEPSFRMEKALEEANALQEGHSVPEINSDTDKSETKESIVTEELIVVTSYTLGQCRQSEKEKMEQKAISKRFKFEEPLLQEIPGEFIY
Description: We derisk potential for off-target activity by profiling the compound in a CEREP panel, a standard secondary pharmacology assessment, as well as a kinase panel to derisk a potential hinge-binding motif in our leads, and a PARP panel to derisk activity against human […]. Reassuringly, the compounds are selective, with the only off-targets being moderate human CHRM2 and KOR receptors activity associated with ASAP-0011198.

[16] = tested on: KV channel; assay: In vitro CEREP profiling, KV channel (antagonist radioligand); format: binding; details: test compound concentration 10 uM
Description: as §1

[17] = test compound concentration 10 uM
[18] = In vitro human liver microsomal stability
[19] = kappa (h) (KOP) (agonist radioligand), test compound concentration 10 uM
[20] = read-out: perc_inhibition (% inhibition of the binding of a ligand specific for each target)

T2 sequence (P07550 whole entry): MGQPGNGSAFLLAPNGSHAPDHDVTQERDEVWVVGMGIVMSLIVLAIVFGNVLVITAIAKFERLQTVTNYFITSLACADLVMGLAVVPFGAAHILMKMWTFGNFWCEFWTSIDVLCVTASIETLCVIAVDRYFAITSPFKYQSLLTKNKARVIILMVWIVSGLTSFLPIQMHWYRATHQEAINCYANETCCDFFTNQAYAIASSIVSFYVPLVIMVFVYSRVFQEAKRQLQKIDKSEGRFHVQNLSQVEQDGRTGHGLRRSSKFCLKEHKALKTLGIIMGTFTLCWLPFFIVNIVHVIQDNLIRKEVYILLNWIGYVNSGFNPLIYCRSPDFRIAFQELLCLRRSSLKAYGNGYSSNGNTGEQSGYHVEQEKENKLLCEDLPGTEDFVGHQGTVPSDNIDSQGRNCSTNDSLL
T4 sequence (P14416 1-414 isoform P14416-2): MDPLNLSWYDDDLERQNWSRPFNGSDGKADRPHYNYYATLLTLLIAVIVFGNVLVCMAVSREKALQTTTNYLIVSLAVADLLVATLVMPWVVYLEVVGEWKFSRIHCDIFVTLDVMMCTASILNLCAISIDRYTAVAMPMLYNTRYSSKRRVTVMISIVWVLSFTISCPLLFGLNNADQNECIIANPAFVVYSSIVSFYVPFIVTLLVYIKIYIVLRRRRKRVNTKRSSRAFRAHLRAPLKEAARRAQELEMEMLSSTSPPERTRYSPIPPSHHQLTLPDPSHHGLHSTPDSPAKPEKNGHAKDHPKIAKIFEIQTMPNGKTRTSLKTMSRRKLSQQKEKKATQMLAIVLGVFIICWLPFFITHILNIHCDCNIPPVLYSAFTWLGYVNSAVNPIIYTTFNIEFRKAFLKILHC
T6 sequence (Q01959 whole entry): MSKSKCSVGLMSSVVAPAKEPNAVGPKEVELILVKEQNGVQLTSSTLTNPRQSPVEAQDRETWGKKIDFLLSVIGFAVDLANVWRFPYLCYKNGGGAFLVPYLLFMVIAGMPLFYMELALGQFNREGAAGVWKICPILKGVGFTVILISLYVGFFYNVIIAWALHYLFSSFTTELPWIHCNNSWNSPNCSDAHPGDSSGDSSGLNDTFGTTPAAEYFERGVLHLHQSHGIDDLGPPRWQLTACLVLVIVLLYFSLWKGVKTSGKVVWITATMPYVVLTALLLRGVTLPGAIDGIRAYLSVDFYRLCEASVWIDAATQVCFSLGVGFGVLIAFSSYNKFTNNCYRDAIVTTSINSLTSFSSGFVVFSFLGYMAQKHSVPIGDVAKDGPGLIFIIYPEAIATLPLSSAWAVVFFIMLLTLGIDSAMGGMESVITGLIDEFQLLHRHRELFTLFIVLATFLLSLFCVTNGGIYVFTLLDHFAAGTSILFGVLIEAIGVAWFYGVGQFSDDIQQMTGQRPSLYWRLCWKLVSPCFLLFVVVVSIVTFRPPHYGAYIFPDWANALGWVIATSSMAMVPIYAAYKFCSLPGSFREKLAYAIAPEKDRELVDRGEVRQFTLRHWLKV
T9 sequence (P41145 whole entry): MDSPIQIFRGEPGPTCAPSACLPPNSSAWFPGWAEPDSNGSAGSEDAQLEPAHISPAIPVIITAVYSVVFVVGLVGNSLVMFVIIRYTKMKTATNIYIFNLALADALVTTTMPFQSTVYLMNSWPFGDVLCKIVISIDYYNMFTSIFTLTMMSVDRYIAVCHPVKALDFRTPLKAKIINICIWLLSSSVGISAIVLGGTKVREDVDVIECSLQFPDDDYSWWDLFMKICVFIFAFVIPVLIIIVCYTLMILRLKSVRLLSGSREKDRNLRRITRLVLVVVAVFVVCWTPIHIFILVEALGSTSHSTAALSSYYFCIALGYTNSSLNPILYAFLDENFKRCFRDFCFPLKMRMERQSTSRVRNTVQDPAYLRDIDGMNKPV
T5 sequence (P43681 29-627 limits assumed): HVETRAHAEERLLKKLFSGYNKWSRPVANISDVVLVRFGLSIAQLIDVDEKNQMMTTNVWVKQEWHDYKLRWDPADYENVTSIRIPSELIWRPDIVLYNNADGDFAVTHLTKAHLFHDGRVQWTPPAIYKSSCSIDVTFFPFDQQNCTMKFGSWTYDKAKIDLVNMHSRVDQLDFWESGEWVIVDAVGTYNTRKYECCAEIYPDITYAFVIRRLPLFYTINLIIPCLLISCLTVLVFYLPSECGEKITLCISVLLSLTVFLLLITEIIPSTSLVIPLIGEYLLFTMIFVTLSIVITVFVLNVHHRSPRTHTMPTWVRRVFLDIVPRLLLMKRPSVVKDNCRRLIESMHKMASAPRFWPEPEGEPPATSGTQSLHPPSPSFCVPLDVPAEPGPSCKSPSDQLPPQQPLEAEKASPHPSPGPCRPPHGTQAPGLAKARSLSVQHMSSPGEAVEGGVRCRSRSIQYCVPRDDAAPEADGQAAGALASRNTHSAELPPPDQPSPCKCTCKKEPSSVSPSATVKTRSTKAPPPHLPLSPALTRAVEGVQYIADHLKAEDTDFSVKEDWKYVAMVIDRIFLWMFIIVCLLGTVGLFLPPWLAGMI
T5 sequence (P17787 26-502): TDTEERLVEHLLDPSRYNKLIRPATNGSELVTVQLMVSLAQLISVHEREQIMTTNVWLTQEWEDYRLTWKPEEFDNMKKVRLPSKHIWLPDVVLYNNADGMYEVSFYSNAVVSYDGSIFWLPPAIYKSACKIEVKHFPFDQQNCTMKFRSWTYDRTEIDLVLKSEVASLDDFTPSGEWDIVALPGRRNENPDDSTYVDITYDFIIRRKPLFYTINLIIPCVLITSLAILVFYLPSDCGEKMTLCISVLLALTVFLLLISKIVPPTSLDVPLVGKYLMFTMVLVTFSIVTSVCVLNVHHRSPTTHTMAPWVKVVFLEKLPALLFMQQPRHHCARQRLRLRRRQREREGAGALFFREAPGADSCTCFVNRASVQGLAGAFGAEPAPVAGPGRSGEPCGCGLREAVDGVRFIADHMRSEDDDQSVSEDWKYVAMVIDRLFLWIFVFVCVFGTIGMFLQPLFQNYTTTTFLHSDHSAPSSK
T8 sequence (P08588 whole entry): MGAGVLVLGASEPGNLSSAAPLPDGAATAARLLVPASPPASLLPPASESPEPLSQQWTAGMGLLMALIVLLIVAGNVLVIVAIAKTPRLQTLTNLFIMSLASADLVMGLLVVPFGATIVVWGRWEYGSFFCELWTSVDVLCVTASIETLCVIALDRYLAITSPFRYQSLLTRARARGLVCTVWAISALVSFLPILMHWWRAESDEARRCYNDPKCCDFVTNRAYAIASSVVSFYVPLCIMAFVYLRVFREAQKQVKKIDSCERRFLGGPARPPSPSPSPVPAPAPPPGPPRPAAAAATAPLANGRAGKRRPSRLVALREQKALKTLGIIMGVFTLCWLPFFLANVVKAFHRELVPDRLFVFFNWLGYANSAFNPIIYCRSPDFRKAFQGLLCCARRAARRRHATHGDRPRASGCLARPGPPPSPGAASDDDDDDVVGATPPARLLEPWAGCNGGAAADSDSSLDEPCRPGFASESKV
T7 sequence (P25021 whole entry): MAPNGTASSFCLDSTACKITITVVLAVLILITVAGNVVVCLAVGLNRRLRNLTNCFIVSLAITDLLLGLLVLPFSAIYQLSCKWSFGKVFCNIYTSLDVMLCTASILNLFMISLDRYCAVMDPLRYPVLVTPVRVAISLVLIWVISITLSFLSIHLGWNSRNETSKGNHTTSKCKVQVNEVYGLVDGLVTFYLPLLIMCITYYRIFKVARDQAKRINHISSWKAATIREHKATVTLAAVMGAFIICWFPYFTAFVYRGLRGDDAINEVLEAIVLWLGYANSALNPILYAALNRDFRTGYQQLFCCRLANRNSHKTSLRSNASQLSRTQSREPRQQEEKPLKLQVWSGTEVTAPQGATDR

Row | SMILES | perc_inhibition (% inhibition of the binding of a ligand specific for each target) [1, 17] | perc_inhibition (% inhibition of the binding of a ligand specific for each target) [2] | perc_inhibition (% inhibition of the binding of a ligand specific for each target) [3] | perc_inhibition (% inhibition of the binding of a ligand specific for each target) [4] | clint [5, 18] | perc_remaining [5, 18] | t_half [5, 18] | perc_remaining_no_cofactor [5, 18] | perc_inhibition (% inhibition of the binding of a ligand specific for each target) [6] | perc_inhibition (% inhibition of the binding of a ligand specific for each target) [7] | clint [8] | t_half [8] | perc_inhibition (% inhibition of the binding of a ligand specific for each target) [9] | perc_inhibition (% inhibition of the binding of a ligand specific for each target) [10] | perc_inhibition (% inhibition of the binding of a ligand specific for each target) [11] | perc_inhibition (% inhibition of the binding of a ligand specific for each target) [12] | clint [13] | t_half [13] | perc_inhibition (% inhibition of the binding of a ligand specific for each target) [14, 19] | perc_inhibition (% inhibition of the binding of a ligand specific for each target) [16] | also measured
1 | CC(C)[C@H](Nc1ncnc2[nH]c(-c3cnn(C)c3C#N)cc12)c1ccc2c(n1)OCCO2 [ASAP-0010715] | 2% | 34% | 3% | 1% | 17.0 µL/min/mg | 78.0% | 100.0 min | 116.0% | -7% | 2% | 87.5 uL/min/1E6 cells | 7.92 min | 29% | -16% | 11% | -3% | 3.01 uL/min/1E6 cells | 231.0 min | 31% | 0% | remaining activity at 10 µM ([15]; batch_name=ASAP-0010715-002): 105%
2 | CNCc1cc(-c2cc3c(N[C@@H](c4ccc5c(c4)S(=O)(=O)CCC5)C(C)C)ncnc3[nH]2)co1 [ASAP-0011176] | -1% | 50% | 6% | -24% | 133.0 µL/min/mg | 10.0% | 12.6 min | 95.0% | -9% | 0% | 15.6 uL/min/1E6 cells | 44.5 min | 50% | -3% | -4% | 10% | 7.3 uL/min/1E6 cells | 94.9 min | 57% | 1% | remaining activity at 10 µM ([15]; batch_name=ASAP-0011176-002): 86%
3 | CC(C)C(Nc1ncnc2[nH]c(C(=O)NC3CCN(C)C3)cc12)c1ccc2c(c1)S(=O)(=O)CCC2 (stereo not drawn) [ASAP-0011198] | 1% |  |  |  |  | 70.0% | 83.8 min | 106.0% |  |  | 9.3 uL/min/1E6 cells | 145.0 min and 74.8 min |  |  |  | -5% |  | > 231.0 min |  | 2% | inhibition at 10 µM [2, 20]: 38%; inhibition at 10 µM [3, 20]: -3%; inhibition at 10 µM [4, 20]: 7%; clearance (metabolic stability), in words ([5]; HLM/MLM): low clearance; microsomal CLint ([5]; liver microsomes, In vitro human liver microsomal stability): 20 µL/min/mg; inhibition at 10 µM [6, 20]: -7%; inhibition at 10 µM [7, 20]: -2%; hepatocyte CLint ([8]; rat, hepatocytes): 4.78 µL/min/1e6 cells; inhibition at 10 µM ([9]; read-out: perc_inhibition, % inhibition of the binding of a ligand specific for each target): 22%; inhibition at 10 µM [10, 20]: -9%; inhibition at 10 µM [11, 20]: 4%; hepatocyte CLint ([13]; hepatocytes): < 3 µL/min/1e6 cells; off-target activity at KOR receptor, in words ([14]; CEREP panel): moderate; inhibition at 10 µM ([14]; kappa (h) (KOP) (agonist radioligand), test compound concentration 10 uM, read-out: perc_inhibition (% inhibition of the binding of a ligand specific for each target)): 78%; remaining activity at 10 µM ([15]; batch_name=ASAP-0011198-002): 105%
4 | Cn1ncc(-c2cc3c(N[C@@H](c4ccc5c(n4)OCCO5)C(C)(C)C)ncnc3[nH]2)c1C#N [ASAP-0011221] | 11% | 54% | 4% | 4% | 283.0 µL/min/mg | 1.0% | 5.9 min | 85.0% | 13% | -5% | 185.0 uL/min/1E6 cells | 3.76 min | 50% | -10% | 11% | 5% | 3.81 uL/min/1E6 cells | 182.0 min | 33% | 5% | remaining activity at 10 µM ([15]; batch_name=ASAP-0011221-002): 108%
5 | C[C@H](C(=O)O)[C@@H](NC(=O)c1ncnc2[nH]ccc12)c1ccc(Br)cc1 [ASAP-0014722] |  | -8% | -8% | 6% | 3.0 µL/min/mg | 92.211% | 573.861 min | 101.611% | -1% | 0% | < 3.0 uL/min/1E6 cells | > 231.0 min | 4% | -21% | -5% | 12% | < 3.0 uL/min/1E6 cells | > 231.0 min | 2% | 0% | perc_inhibition (% inhibition of the binding of a ligand specific for each target) ([1]; test compound 10 uM): 4%; remaining activity at 10 µM ([15]; batch_name=ASAP-0014722-002): 98%
